We go through 89 compounds from a melting point compilation (Tetko et al.; mined from patent text by program, amines drawn as free bases though some values may be those of a salt).

The term melting point denotes the temperature, or range, at which the solid turns liquid.

As for `CCC(CC)c1ccc(Cl)c2nc(Nc3c(C)noc3C)n(CCCCO)c12`, the melting point was in the range of 150 to 155 °C.

`COc1c(Cl)nc(SC)nc1NN` displayed a melting point of 118 to 119 °C.

Compound `CC1C(=O)N(c2ccccc2)C(=S)N1c1ccc(Oc2ccccc2)cc1` (centres undefined) showed a melting point of 141 °C.

Regarding `CCn1ncc2c(N)c3c(nc21)CCc1ccccc1C3=O`, the melting point is 132 to 133 °C.

`Cc1ccc(S(=O)(=O)Nc2ccc(N)c(C3CCCC3)c2)cc1`: the melting point is 128 °C.

`CC(=O)c1c[nH]c2nccc(-c3ccccc3)c12`: the melting point is > 210 °C.

Consider `O=C(Cc1ccccc1)NCCc1ccccc1`, for which the melting point was 91 to 92 °C.

Take `O=[N+]([O-])c1ccc(CO)cc1OC1CCCC1`: the melting point amounted to 54 °C.

Turning to `CCOCc1nc2c(N)nc3ccccc3c2n1C[C@@H](O)CO`, the melting point fell in the range of 99 to 100 °C.

`COC(=O)c1cc(C(C)(C)C#N)cc(C(C)(C)C#N)c1`: the melting point was in the range of 83 to 85 °C.

Turning to `Nc1nc(-c2ccco2)c(N2CCOCC2)s1`, the melting point fell in the range of 285 to 288 °C.

In turn, `CCN1C=C(C(=O)O)C(=O)CC1c1ccccc1` (centres undefined) came in with a melting point of 148 to 150 °C.

Consider `O=c1cc(S)sc2ccoc12`, for which the melting point is > 245 °C.

In the case of `CC(=O)N(c1ccc(O)cc1)C(C)C`, the melting point fell in the range of 152 to 153 °C.

`Cc1cc(C2N(c3ccccc3)CCN2c2ccccc2)cc(C)c1O` yielded a melting point of 166 to 167 °C.

As for `Cc1cc(S(=O)(=O)N2CCCCC2)c(O)c2c1CCC2=O`, the melting point was in the range of 188 to 189 °C.

`N#Cc1nn(-c2c(Cl)cc(C(F)(F)F)cc2Cl)c(N)c1S(=O)(=O)C(F)(F)F` showed a melting point of 219 to 222 °C.

The compound `N#CCc1ccc(NC(=O)c2ccc(C=O)cc2)cc1` displayed a melting point of 194 °C.

Consider `CCS(=O)(=O)NC(=O)CCCCC1CCSS1` (centres undefined), for which the melting point was 98 to 100 °C.

The compound `CCOC(=O)C(C)(C)CCCOc1ccc(OCCn2c(=O)sc3cc(C(=O)c4ccccc4)ccc32)cc1` returned a melting point of 82 to 84 °C.

Consider `Cc1sc(C)c2c1CCC=C2c1c[nH]cn1`, for which the melting point lay within 179 to 180 °C.

The compound `O=C1N(CC2CCN(c3ccccn3)CC2)c2ccccc2C12COc1cc3c(cc12)OCO3` (centres undefined) gave a melting point of 95 to 97 °C.

Compound `Cn1c(COc2cccc(N)c2)nc2ccccc21` returned a melting point of 149 to 153 °C.

Take `O=C1CCC(N2Cc3c(OCc4ccc(C(=O)NCCN5CCCCC5)cc4)cccc3C2=O)C(=O)N1` (centres undefined): the melting point is 220 to 222 °C.

`Cc1cc(C2=NOC(c3cc(Cl)cc(Cl)c3)(C(F)(F)F)C2)ccc1C(=O)NCO` (centres undefined): the melting point is 69 to 73.5 °C.

On to `CC(C)n1nc(-c2sc(NC3CCCCC3)nc2-c2ccccc2)ccc1=O`, for which the melting point lay within 149 to 151 °C.

The compound `CCN1c2ncc(Cc3cccc(O)c3)cc2C(=O)N(C)c2ccc(Cl)nc21` yielded a melting point of 219 to 220 °C.

`[N-]=[N+]=Nc1cccc2c1C(=O)N(CCCCCC(=O)Cl)C2=O` came in with a melting point of 68 to 69 °C.

As for `N#Cc1cc(Cl)cc(CO)c1`, the melting point lay within 110 to 111 °C.

As for `Fc1ccc(-c2nn3cc(C(F)(F)F)ccc3c2-c2ccnc(NC3CCCC3)n2)cc1`, the melting point was in the range of 155 to 156 °C.

`COC(=O)CSc1cc(=O)n(C)c(=O)n1C` came in with a melting point of 96 to 97.5 °C.

`O=C(Nc1ccccc1)c1cccc(Oc2ccccc2)c1` gave a melting point of 111 to 112 °C.

`CC(C)(C)c1ccc(C(=O)Nc2ccc([N+](=O)[O-])cc2C(=O)O)cc1` came in with a melting point of 245 to 249 °C.

With `Cc1cc(C)c(Nc2nc(C)ncc2S(=O)(=O)c2ccc(F)cc2)c(C)c1`, the melting point is 191 to 193 °C.

Compound `CCN(c1ccc([N+](=O)[O-])cc1[N+](=O)[O-])S(=O)(=O)c1ccc(C)cc1` came in with a melting point of 135 to 136 °C.

`CSc1ccc(C(=O)Cc2cccc(F)c2)cc1` registered a melting point of 94.5 to 95.5 °C.

Turning to `NC(=NCCN(Cc1ccc(F)cc1)c1ccccn1)NCCCc1c[nH]cn1`, the melting point lay within 60 to 63 °C.

In the case of `Cc1sc(-c2ccccc2)nc1COc1cc(COc2ncccc2C#N)on1`, the melting point lay in the range of 135 to 136 °C.

The compound `CCC(Oc1ccc(Cl)c(C)c1)C(=O)NCc1ccco1` (centres undefined) showed a melting point of 100 to 102 °C.

On to `COc1cc2cc(CO)c(CO)c(-c3ccnc(-n4nc(O)c5ccccc5c4=O)c3)c2cc1OC`, for which the melting point was > 250 °C.

Regarding `CNC(=O)N(C)c1nc2c(s1)C(=O)CC(C)(C)C2`, the melting point was in the range of 174 to 175 °C.

Consider `CCOCc1nc2c(N)nc3cc(OCCCCCCNC(C)=O)ccc3c2n1CC(C)(C)NC(C)=O`, for which the melting point lay in the range of 190 to 192 °C.

Take `O=C(NO)c1cccnc1Cl`: the melting point stood at 179 °C.

As for `C=CCOc1ccc([C@H]2CCN(C(=O)OC(C)(C)C)C[C@@H]2O)cc1` (racemic), the melting point worked out at 113 °C.

Take `COc1ccc(-c2ccc3c(c2)CC[C@H]2N(C)C(=O)CC[C@]32C)cc1`: the melting point stood at 150 °C.

On to `CC(C)Oc1ccccc1C1(OC(=O)N2CCN(c3ccncc3)CC2)C(=O)Nc2ccc(Cl)cc21` (centres undefined), for which the melting point was in the range of 196 to 198 °C.

Turning to `C1=Nc2ccccc2N2CCCc3cccc1c32`, the melting point is 118 to 120 °C.

For the compound `Cc1ccccc1Cc1c(C)c(NC(=O)CC(C)(C)C)c(C)c2c1OC(C)(C)C2`, the melting point is 175 to 176 °C.

The compound `Cc1cc(-c2cccnc2)n2ncnc2n1` came in with a melting point of 183 to 185 °C.

For the compound `COC(=O)C1C=CCN2C(=O)C(CCO)(Cc3ccccc3)C(=O)N12` (centres undefined), the melting point fell in the range of 148 to 149 °C.

`O=S(=O)(CC(Br)(CBr)c1cccc(Cl)n1)C1CC1` (centres undefined) gave a melting point of 75 °C.

Consider `CCN1CC(NC(=O)c2ccc(F)cc2)CN1CC`, for which the melting point was 114 to 116 °C.

Compound `O=c1cc(C(F)(F)C(F)(F)F)nc[nH]1` returned a melting point of 122 to 126 °C.

On to `O=C1C(=O)c2ccc(-c3ccncc3)cc2C2=C1SCC1(CCN(C(=O)c3cccc(Cl)c3)CC1)O2`, for which the melting point lay within 265 to 267 °C.

Compound `CN1C(=O)[C@H](NC(=O)CCc2cccc(Cl)c2)N=C(c2ccccc2)c2ccccc21` had a melting point of 157 to 159 °C.

Compound `O=S(=O)(Nc1nccnc1OCc1ccccn1)c1cccc(Cl)c1Cl` registered a melting point of 167 to 168 °C.

Compound `CCN(C(=S)Oc1ccc(C(C)C)cc1)c1cccc(OC)n1` displayed a melting point of 53 to 54 °C.

With `COc1cccc(CN2CCN(CC(=O)N3CC=C(c4ccccc4)n4ncc(C#N)c43)CC2)c1`, the melting point fell in the range of 98 to 100 °C.

On to `CCCc1c(COc2ccc(Cc3nnnn3CC(=O)O)cc2)ccc(C(C)=O)c1O`, for which the melting point lay within 205 to 210 °C.

`CC(C)(C)OC(=O)Nc1ccc2ccc(S(C)(=O)=O)cc2c1Br`: the melting point was in the range of 166 to 167 °C.

The compound `CCCCc1ccc(-c2ccc3c(c2)CC[C@H]2N(C)C(=O)CC[C@]32C)cc1` registered a melting point of 102 to 108 °C.

On to `CC(C)(C)Nc1c(NCc2cccc(OC(F)(F)F)c2)c(=O)c1=O`, for which the melting point is 210 to 212 °C.

`COc1c(C)c(NC(=O)CC(C)(C)C)c2c(c1C)C(c1ccc(C(C)C)cc1)C(C)(C)O2` (centres undefined) returned a melting point of 140 to 141 °C.

Compound `O=C(O)CCCCCc1c[nH]c2ccccc12` showed a melting point of 124 to 126 °C.

`FC(F)(F)c1ccc2c(c1)N(C1=CCCN1C1=NCCC1)c1ccccc1O2` came in with a melting point of 140 to 142 °C.

Consider `COc1ccc(CSc2nc3cnccc3[nH]2)cc1C`, for which the melting point lay in the range of 158 to 159 °C.

With `CN1Cc2ccccc2P1(=O)c1ccccc1` (centres undefined), the melting point was in the range of 129 to 130 °C.

`Cc1csc2nc(-c3ccc(C(=O)O)cc3)nc(Cc3ccc4c(c3)OCO4)c12` gave a melting point of 250 °C.

Compound `Cc1cc(-n2ccnc2)c2cccc(OCc3c(Cl)ccc(S(=O)(=O)N4CCC[C@H]4C(=O)NCCO)c3Cl)c2n1` gave a melting point of 140 °C.

The compound `O=C(O)/C=C/c1ccc(OCCC2OCCO2)cc1Oc1ncc(C(F)(F)F)cc1Cl` gave a melting point of 157 to 158 °C.

`COC(=O)C(O)c1ccc([N+](=O)[O-])cc1` (centres undefined) gave a melting point of 56 to 58 °C.

`CC(C)(C)c1ccc2c(c1)cc(-c1ccccc1)n2-c1ccc(O)c(C(=O)O)c1` returned a melting point of 271 to 273 °C.

`CN1CSC(Cc2cc(C(C)(C)C)c(O)c(C(C)(C)C)c2)C1=O` (centres undefined) returned a melting point of 102 to 105 °C.

`CCC(=O)NS(=O)(=O)c1cccc(-c2cc(-c3nc(-c4ccc(C(F)(F)F)cc4)cc(C(F)(F)F)n3)ccn2)c1`: the melting point was 144 °C.

The compound `C=CCC1(O)CCC2C3CCC4=CC(=O)CCC4C3CCC21Cc1cccc(N(C)C)c1` (centres undefined) had a melting point of 142 °C.

The compound `CSc1ccc(-c2nn(Cc3ccc(F)cc3)c(=O)cc2-c2ccc(F)cc2)cc1` registered a melting point of 156 °C.

Compound `CC(C(=O)N(C)C)n1c(-c2ccc(Cl)cc2)nc2cccnc21` (centres undefined) had a melting point of 124 to 126 °C.

For the compound `O[C@@H](c1n[nH]cc1-c1ccccc1)[C@H](CCN1CCC(O)(c2ccccc2)CC1)c1ccc(Cl)c(Cl)c1` (racemic), the melting point lay within 122 to 124 °C.

Compound `COC(=O)CS(=O)(=O)CCCCN(c1cnc(-c2ccccc2)c(-c2ccccc2)n1)C(C)C` showed a melting point of 123 to 125 °C.

In turn, `CC1OC(C)C(C(=O)O)C1=O` (centres undefined) registered a melting point of 55 to 57 °C.

Regarding `Cc1cccc(C(=O)Cc2ccnc(NC(=O)OC(C)(C)C)c2)c1`, the melting point is 144 to 146 °C.

As to `COC(=O)CCC(C)C1CCC2C3CC=C4CC(OC(C)=O)CCC4(C)C3CCC12C` (centres undefined), the melting point stood at 152 °C.

In turn, `Cc1oc(-c2ccccc2)nc1COc1ccc(CC2SC(=O)NC2=O)cc1` (centres undefined) returned a melting point of 162 to 163 °C.

Compound `CN(CCCNC(=O)COc1nc2ccccc2s1)Cc1ccc(Cl)c(Cl)c1` registered a melting point of 113 to 115 °C.

`COc1cc(Br)c(OC)c(C(N)=O)c1` showed a melting point of 222 to 225 °C.

The compound `O=C(O)C1C=C(c2ccccc2)CC1` (centres undefined) registered a melting point of 122 to 124 °C.

Regarding `CC(C)(C)OC(=O)ON1C(C)(C)CC(OC(=O)c2ccccc2)CC1(C)C`, the melting point is 109 to 111 °C.

As to `CCc1nn(Cc2ccccn2)c2c(=O)[nH]c(-c3cc(S(C)(=O)=O)ccc3OCCOC)nc12`, the melting point lay within 166 to 167 °C.

Regarding `CC(=O)N1C(SCc2ccccc2N(C)C)=NC(=O)C1(C)C`, the melting point lay within 99 to 100 °C.
